According to ChEMBL document CHEMBL1201862, “PubChem BioAssay data set” (2004):
Activity calls are given as the source filed them.

How the values were obtained:
[1] = molecular target: Luciferin 4-monooxygenase (Photinus pyralis, UniProt P08659); assay: inhibition of purified Photinus pyralis luciferase – biochemical, luminescence, dose response (AID 1891)
[2] = Luminescence Cell-Based Dose Confirmation HTS to Identify Inhibitors of Platelet Dense Granule Release. [Related pubchem assays: 1663 (Primary HTS), 1678 (Summary of Project)]; format: functional
Protein skinhead-1 = molecular target: T1, Protein skinhead-1 (Caenorhabditis elegans, UniProt P34707); format: functional
T1 sequence (P34707 whole entry): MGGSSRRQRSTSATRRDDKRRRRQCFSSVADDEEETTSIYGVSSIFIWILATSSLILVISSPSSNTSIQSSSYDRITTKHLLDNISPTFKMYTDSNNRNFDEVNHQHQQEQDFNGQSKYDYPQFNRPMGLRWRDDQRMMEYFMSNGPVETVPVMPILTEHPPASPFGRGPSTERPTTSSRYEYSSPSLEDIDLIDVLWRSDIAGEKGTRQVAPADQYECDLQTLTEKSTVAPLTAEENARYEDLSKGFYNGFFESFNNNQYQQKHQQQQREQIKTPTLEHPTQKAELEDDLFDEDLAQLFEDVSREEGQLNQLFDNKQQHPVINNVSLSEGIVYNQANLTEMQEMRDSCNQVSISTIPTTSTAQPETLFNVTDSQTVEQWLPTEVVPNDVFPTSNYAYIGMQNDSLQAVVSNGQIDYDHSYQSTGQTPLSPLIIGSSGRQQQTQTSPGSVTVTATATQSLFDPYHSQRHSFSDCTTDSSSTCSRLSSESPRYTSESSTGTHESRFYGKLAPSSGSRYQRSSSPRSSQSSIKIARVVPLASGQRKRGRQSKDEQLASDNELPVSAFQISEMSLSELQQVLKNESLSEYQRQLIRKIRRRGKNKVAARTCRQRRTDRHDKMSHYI

[3] = Luminescence-based cell-based high throughput dose response assay to identify activators of the DAF-12 from the parasite S. stercoralis (ssDAF-12).; format: functional
[4] = molecular target: T2, Oxysterols receptor LXR-beta (Homo sapiens, UniProt P55055); assay: LXR agonists, Gal4 luciferase reporter, dose response, counter-screen for ssDAF-12 agonist project, cell-based, luminescence, HEK293, S. stercoralis campaign (AID 720737); format: functional; conditions: read-out: IC50 (the source's name)
T2 sequence (P55055 whole entry): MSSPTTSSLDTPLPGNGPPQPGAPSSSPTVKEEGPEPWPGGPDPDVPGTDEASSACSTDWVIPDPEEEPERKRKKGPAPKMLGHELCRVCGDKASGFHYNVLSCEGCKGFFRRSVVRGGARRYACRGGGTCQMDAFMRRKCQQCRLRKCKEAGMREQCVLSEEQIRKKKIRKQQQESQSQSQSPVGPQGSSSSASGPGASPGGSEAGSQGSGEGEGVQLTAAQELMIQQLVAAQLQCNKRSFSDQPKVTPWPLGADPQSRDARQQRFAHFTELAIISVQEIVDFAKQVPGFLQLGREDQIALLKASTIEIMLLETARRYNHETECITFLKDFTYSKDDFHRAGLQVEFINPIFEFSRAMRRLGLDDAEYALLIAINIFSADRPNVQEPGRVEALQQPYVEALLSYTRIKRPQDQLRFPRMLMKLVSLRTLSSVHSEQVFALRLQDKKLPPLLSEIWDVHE

[5] = molecular target: T2, Oxysterols receptor LXR-beta; format: functional, cell-based
[6] = viability loss in A549 lung cancer cells – cell-based, cherry-picks, […], cytotoxicity control, dose response (AID 1053119); format: functional
[7] = Trypanosoma cruzi growth suppression in host cells – NIH3T3 host cells, beta-gal luminescence, confirmation (AID 2044); format: functional, cell-based;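 further: intracellular parasites grown in NIH/3T3 mouse fibroblasts as host cells; luminescent beta-galactosidase reporter signal from transgenic T. cruzi replicating inside host cells; inhibitors lower the luminescence signal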
[8] = NIH3T3 cell viability loss – ATP luminescence, mouse fibroblasts, counter-screen, dose response (AID 2010); format: functional, cell-based;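 further: cells exposed to compound for about 90 hours before reading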
[9] = molecular target: T3, Disintegrin and metalloproteinase domain-containing protein 17 (Homo sapiens, UniProt P78536); assay: exosite inhibitors of ADAM17, dose response, biochemical (AID 743260)
T3 sequence (P78536 whole entry, the tested form may be a part): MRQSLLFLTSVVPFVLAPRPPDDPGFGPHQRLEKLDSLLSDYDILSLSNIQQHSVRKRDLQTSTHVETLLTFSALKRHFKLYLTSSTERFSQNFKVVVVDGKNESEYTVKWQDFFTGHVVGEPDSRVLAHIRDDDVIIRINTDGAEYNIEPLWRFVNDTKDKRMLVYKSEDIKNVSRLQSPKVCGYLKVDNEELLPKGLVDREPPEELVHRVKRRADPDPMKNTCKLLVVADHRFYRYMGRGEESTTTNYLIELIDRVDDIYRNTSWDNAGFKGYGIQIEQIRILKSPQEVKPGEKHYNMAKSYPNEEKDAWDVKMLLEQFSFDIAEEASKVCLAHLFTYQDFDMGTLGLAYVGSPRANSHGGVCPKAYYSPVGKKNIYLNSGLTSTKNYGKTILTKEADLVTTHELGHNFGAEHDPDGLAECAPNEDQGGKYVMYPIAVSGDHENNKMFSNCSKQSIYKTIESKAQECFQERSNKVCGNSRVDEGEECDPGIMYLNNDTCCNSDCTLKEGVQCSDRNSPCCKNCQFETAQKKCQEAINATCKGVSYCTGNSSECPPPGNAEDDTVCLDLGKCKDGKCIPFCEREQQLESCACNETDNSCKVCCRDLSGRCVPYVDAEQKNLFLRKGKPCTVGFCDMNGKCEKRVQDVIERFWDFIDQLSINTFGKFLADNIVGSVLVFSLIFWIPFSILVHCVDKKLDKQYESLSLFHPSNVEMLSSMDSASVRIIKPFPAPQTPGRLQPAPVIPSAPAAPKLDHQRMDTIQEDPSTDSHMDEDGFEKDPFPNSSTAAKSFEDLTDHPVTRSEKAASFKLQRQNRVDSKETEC

[10] = inhibition of ADAM10 peptide cleavage – biochemical, FRET peptide substrate, recombinant human ADAM10, selectivity assay for ADAM17 exosite inhibitor project, dose response (AID 743259);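 further: ADAM10 enzyme cleaving a FRET peptide substrate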
[11] = molecular target: T4, Endoribonuclease toxin MazF (Escherichia coli K-12, UniProt P0AE70); assay: activation of MazEF endoribonuclease cleavage – biochemical, fluorescence, single-stranded RNA substrate, uHTS hits, dose response (AID 588481); format: functional
T4 sequence (P0AE70 whole entry): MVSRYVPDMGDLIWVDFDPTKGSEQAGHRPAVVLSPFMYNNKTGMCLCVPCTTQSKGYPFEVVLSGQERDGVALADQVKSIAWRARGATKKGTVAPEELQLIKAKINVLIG

[12] = molecular target: T4, Endoribonuclease toxin MazF; assay: substrate-only fluorescence increase artefacts – biochemical, single-stranded RNase substrate, counter-screen for MazEF activator project, dose response (AID 588502); format: functional
[13] = molecular target: Arf-GAP with SH3 domain, ANK repeat and PH domain-containing protein 1 (Homo sapiens, UniProt Q9ULH1); format: functional;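 further: biochemical fluorescence polarization dose–response screen measuring inhibition of ASAP1; ASAP1 GAP domain stimulating GTP hydrolysis by truncated human ARF1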
Chain of Arf-GAP with SH3 domain, ANK repeat and PH domain-containing protein 1 (Q9ULH1 whole entry, the tested form may be a part): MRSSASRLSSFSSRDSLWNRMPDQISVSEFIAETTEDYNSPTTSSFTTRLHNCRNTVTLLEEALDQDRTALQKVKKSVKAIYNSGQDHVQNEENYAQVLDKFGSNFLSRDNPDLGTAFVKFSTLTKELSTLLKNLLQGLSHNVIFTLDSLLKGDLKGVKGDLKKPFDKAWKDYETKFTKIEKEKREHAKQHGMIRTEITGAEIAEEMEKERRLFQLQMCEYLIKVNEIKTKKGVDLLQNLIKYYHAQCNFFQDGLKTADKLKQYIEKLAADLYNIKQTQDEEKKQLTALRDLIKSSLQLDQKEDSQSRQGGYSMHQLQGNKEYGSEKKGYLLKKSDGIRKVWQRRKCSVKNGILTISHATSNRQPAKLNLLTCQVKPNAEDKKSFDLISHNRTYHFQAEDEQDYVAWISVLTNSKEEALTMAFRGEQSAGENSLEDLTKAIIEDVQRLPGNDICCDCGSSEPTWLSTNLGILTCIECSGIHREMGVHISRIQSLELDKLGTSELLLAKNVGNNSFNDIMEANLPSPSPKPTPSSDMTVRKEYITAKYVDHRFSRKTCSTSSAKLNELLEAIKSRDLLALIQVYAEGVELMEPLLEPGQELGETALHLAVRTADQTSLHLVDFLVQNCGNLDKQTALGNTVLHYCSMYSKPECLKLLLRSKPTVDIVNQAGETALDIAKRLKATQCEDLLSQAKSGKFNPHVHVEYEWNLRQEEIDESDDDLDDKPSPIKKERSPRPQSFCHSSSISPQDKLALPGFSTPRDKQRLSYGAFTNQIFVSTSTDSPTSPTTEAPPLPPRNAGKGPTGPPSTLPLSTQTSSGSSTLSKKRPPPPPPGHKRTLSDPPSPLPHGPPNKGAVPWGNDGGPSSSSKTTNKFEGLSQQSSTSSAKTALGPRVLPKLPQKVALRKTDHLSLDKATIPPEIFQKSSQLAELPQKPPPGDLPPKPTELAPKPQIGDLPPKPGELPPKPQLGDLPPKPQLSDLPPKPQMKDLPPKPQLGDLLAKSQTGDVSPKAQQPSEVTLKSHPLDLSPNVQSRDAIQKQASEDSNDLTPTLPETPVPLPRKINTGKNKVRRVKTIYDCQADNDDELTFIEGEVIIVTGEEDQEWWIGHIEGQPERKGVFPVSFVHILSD

[14] = growth inhibition of yeast DHODH-expressing 3D7 parasites – SYBR Green, dry powder samples, dose response (AID 1159570); format: functional, cell-based;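 further: parasite growth measured after 72 hours of compound exposure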
[15] = toxicity to human HepG2 hepatoma cells – cell-based, plate reader, dry powder samples, cytotoxicity control, dose response (AID 1159569); format: functional;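 further: inhibitor potency with signal falling toward the positive control level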
[16] = P. falciparum Dd2 growth inhibitors, dose response, SYBR Green, cherry-picked samples (AID 1159567); format: functional, cell-based
[17] = Dd2 malaria parasite growth inhibition potency – SYBR Green, dry powder samples, dose response (AID 1159566); format: functional, cell-based;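 further: potency for growth inhibition with lower SYBR green DNA signal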
[18] = growth inhibition of PfATP4-mutant resistant parasites – NITD609-resistant line, SYBR Green, dry powder, dose response (AID 1159571); format: functional, cell-based;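 further: parasites synchronized at ring stage by sorbitol before testing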
Beta-lactamase [19] = molecular target: Beta-lactamase (Salmonella choleraesuis (strain SC-B67), UniProt Q5J463); assay: Epi-absorbance-based counterscreen for selective VIM-2 inhibitors: dose response biochemical high throughput screening assay to identify inhibitors of TEM-1 serine-beta-lactamase.
Chain of Beta-lactamase (Salmonella choleraesuis (strain SC-B67), UniProt Q5J463) (Q5J463 whole entry): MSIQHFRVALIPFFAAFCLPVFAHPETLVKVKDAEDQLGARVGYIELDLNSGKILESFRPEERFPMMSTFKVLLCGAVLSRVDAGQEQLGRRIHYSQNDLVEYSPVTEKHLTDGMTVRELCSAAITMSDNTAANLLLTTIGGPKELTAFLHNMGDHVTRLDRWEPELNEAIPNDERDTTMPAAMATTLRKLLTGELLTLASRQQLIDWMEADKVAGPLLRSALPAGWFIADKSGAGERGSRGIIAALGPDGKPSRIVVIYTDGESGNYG

Beta-lactamase [20] = molecular target: T5, Beta-lactamase (Pseudomonas aeruginosa, UniProt Q79MP6); assay: inhibition of IMP-1 beta-lactamase activity – biochemical, epi-absorbance, selectivity assay for VIM-2 inhibitor project, dose response (AID 1920)
T5 sequence (Q79MP6 whole entry): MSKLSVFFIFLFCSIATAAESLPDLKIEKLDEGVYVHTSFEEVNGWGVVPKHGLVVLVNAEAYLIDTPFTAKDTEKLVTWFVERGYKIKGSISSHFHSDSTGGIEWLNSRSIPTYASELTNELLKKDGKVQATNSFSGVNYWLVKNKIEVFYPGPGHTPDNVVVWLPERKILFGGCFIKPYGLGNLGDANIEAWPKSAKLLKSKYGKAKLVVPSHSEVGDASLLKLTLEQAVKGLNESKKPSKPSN

Beta-lactamase [21] = molecular target: T5, Beta-lactamase; assay: […] counterscreen for selective VIM-2 inhibitors: dose response biochemical high throughput screening assay to identify inhibitors of IMP-1 metallo-beta-lactamase.
[22] = molecular target: DNA dC->dU-editing enzyme APOBEC-3G (Homo sapiens, UniProt Q9HC16); assay: Dose Response confirmation of small molecule APOBEC3G DNA Deaminase Inhibitors via a fluorescence-based single-stranded DNA deaminase assay. [Related pubchem assays (depositor defined):AID493012, AID493028]; format: functional
Chain of DNA dC->dU-editing enzyme APOBEC-3G (Q9HC16 whole entry): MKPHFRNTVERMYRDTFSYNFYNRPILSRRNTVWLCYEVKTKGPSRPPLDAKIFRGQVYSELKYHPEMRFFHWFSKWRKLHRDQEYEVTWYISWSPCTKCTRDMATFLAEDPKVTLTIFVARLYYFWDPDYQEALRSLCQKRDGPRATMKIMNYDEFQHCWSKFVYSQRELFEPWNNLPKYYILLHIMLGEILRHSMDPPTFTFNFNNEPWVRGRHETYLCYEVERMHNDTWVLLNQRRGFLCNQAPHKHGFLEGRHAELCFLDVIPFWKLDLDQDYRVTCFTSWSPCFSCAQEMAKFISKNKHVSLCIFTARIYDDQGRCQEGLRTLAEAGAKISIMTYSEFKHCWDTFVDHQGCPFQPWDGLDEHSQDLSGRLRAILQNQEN

[23] = potency of ADAM10 substrate cleavage blockers – biochemical, QFRET, dose response (AID 743254);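 further: ADAM10 enzyme with the DM2 quenched FRET peptide as substrate; EDANS fluorescence gain as the protease cuts the substrate; inhibitor potency against ADAM10 proteolytic activity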
[24] = general cell-killing toxicity readout – plate reader, dry powder samples, cytotoxicity control for PAX8 inhibitor project, dose response (AID 743021); format: functional, cell-based
[25] = molecular target: E3 ubiquitin-protein ligase Mdm2 (Homo sapiens, UniProt Q00987); assay: MDM2-luc reporter signal enhancers, multi-concentration potency testing, MDM2 ubiquitin-protein ligase inhibitor program, whole-cell format, luminescence detection, 384-well microplate (AID 1394); format: functional;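 further: MDM2 E3 inhibitors raise luminescence so EC50 is for signal enhancement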
Chain of E3 ubiquitin-protein ligase Mdm2 (Q00987 whole entry): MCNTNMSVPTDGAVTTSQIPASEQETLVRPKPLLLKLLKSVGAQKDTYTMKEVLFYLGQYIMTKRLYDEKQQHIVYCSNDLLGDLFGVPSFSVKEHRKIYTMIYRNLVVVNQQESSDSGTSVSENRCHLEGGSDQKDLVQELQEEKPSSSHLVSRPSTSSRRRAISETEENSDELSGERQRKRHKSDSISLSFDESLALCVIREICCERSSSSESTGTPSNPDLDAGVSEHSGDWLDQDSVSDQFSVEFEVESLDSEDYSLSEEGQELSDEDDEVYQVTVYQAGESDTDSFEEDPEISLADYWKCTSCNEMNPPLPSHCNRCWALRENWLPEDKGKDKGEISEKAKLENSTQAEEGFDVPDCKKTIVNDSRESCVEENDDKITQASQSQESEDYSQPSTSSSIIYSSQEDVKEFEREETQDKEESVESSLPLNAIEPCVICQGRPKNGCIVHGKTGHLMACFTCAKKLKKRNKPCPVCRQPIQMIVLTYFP

BJ = assay: growth inhibition of engineered Ras-driven BJ cells – cell-based, alamar blue fluorescence, cherrypicked samples, dose response (AID 2631); format: functional; conditions: Homo sapiens;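 further: confirmatory dose-response assay in RAS-dependent BJ fibroblasts engineered with TERT, LT and ST, with cytotoxicity read by fluorescence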
[26] = toxicity to human hepatoma HepG2 cells – cell-based, cherry-picked samples, cytotoxicity control, dose response (AID 1159577); format: functional
[27] = reduced cellular PGC1a acetyl-lysine signal – cell-based, cherry-picked samples, dose response (AID 720514); format: functional;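 further: potency may reflect raised or lowered acetylation signal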
[28] = Luminescence Cell-Based Dose Confirmation HTS to Identify Activators of 5'UTR Stem-Loop Driven Alpha-Synuclein mRNA Translation in H4 Neuroglioblastoma Cells. [Related pubchem assays: 1829 (Project Summary), 1814 (Primary HTS)]; format: functional
[29] = Luminescence Cell-Based Dose Response HTS to Identify Activators of Luciferase Translation or Activity in H4 […] Cells. [Related pubchem assays: 1829 (Project Summary), 1814 (Primary HTS)]; format: functional
H4 = assay: Luminescence Cell-Based Dose Response HTS to Identify Activators of 5'UTR Stem-Loop Driven Prion Protein mRNA Translation in H4 Neuroglioblastoma Cells. [Related pubchem assays: 1829 (Project Summary), 1814 (Primary HTS)]; format: functional; conditions: Homo sapiens
Ephrin type-A receptor 4 = Ephrin type-A receptor 4 (Mus musculus, UniProt Q03137); assay: EphA4 ligand-binding antagonists – biochemical, colorimetric, mouse EphA4, primary screen (AID 689); format: functional
Chain of Ephrin type-A receptor 4 (Q03137 whole entry): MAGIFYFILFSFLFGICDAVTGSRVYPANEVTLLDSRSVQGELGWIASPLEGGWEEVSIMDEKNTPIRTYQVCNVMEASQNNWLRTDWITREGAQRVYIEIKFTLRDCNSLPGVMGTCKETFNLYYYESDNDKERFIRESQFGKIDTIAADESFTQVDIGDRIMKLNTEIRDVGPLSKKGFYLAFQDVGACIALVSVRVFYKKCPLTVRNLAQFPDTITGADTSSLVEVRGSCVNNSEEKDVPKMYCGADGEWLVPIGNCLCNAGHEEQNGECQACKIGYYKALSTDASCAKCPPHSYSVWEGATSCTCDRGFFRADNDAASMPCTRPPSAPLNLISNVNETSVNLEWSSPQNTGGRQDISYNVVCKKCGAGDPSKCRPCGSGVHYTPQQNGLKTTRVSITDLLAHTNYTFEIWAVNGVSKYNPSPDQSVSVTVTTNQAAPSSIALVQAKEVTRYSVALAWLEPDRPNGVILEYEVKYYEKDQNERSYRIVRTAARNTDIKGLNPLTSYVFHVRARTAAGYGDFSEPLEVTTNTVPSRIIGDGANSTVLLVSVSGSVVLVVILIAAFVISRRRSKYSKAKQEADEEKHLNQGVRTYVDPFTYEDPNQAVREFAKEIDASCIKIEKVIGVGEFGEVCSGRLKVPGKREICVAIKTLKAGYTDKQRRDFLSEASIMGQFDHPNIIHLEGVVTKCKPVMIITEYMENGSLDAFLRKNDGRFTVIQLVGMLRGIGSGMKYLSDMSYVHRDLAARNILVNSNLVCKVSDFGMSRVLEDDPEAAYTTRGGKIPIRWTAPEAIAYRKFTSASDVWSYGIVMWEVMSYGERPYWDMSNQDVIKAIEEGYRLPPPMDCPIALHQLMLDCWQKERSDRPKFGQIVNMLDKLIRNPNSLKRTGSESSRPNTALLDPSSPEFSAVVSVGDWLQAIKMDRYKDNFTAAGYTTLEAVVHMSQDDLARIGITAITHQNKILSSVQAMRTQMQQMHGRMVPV

[30] = Fluorescence Cell-Based Dose Response to Identify Inhibitors of Thrombin Receptor-Activating Peptide SFLLRN-Mediated P-Selectin Induction on Platelets. [Related pubchem assays: 1663 (Primary HTS), 1889 (retest at dose ), 1891 (counterscreen), 1678 (Project Summary)]; format: functional
[31] = reduction of Shn3 3'UTR-driven luciferase in osteoblasts – cell-based, Clone20 osteoblasts, firefly luciferase, cherry-picked, dose response (AID 624132); format: functional;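 further: firefly luciferase luminescence from reporter carrying the Shn3 3'UTR in osteoblasts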
[32] = loss of viability in HepG2 cells – cell-based, CellTiter-Glo, cherry-picked, cytotoxicity control for Shn3 inhibitor project, dose response (AID 624134); format: functional
[33] = non-specific 3'UTR reporter inhibition in Clone20-Shn3RL – cell-based, Renilla luciferase, cherry-picked, counter-screen for Shn3 inhibitor project, dose response (AID 624133); format: functional
[34] = molecular target: T3, Disintegrin and metalloproteinase domain-containing protein 17; assay: inhibition of ADAM17 substrate cleavage – biochemical, quenched FRET substrate, counter-screen for ADAM10 exosite inhibitor project, dose response (AID 743253)

Chain of Luciferin 4-monooxygenase (P08659 whole entry): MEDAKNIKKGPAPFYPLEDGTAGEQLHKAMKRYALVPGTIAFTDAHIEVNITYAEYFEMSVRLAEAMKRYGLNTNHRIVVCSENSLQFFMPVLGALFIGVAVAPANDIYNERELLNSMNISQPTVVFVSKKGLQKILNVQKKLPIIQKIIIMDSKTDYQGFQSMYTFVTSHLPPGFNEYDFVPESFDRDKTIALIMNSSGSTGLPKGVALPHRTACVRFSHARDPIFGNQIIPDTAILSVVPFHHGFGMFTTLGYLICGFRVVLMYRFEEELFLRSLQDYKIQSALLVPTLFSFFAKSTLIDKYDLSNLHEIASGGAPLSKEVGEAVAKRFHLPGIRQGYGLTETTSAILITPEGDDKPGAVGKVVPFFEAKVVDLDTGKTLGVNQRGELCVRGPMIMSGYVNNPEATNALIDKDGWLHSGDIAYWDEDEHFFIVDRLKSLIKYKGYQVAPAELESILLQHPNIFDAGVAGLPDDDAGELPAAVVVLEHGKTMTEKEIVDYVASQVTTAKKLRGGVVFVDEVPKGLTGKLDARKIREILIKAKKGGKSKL

COc1cccc(-c2nc(-c3cccs3)no2)c1
EC50 [1]: > 112 µM (not active)
EC50 [2]: > 112 µM (not active)
IC50 (Protein skinhead-1): > 100 µM (inactive)
IC50 [3]: > 67.6 µM (inactive)
EC50 [4]: > 67.6 µM (inactive)
EC50 [5]: > 67.6 µM (inactive)
EC50 (cells): > 67.6 µM (inactive)

Cc1ccn2cc(-c3ccc(NC(=O)c4ccco4)cc3)nc2c1
AC50 [6]: > 52 µM (inactive)

CCCn1c(SCC(=O)N2c3ccccc3Sc3ccccc32)nc2ccccc21
EC50 [7]: 2.9 µM (active)
EC50 [8]: > 60 µM (not active)
IC50 [9]: > 69.5 µM (inactive)
IC50 [10]: 19.7 µM (inactive)

Cc1ccc(NC(=O)c2ccc(NCc3ccco3)c([N+](=O)[O-])c2)cc1Cl
EC50 [11]: > 99 µM (inactive)
EC50 [12]: > 99 µM (inactive)
IC50 [13]: 33.6 µM (inactive)

C[C@H](CO)N1C[C@H](C)[C@@H](CN(C)C(=O)c2ccc(F)cc2)Oc2ncc(/C=C/c3ccccc3)cc2C1=O
AC50 [14]: 2.68 µM (active)
AC50 [15]: 85.2 µM (active)
AC50 [16]: 1.63 µM (active)
AC50 [17]: 1.58 µM (active)
AC50 [18]: 1.65 µM (active)

CCCCn1c(S)nnc1-c1nn(C)c(C)c1Cl
IC50 (Beta-lactamase [19]): > 59.6 µM (inactive)
IC50 (Beta-lactamase [20]): > 59.6 µM (inactive)
IC50 (Beta-lactamase [21]): > 59.6 µM (inactive)
IC50 [22]: 12.5 µM (active)

Oc1nc2ccccc2n1C1CCN(C(c2ccccc2OC(F)(F)F)c2nnnn2-c2ccc3c(c2)OCCO3)CC1 (configuration not stated)
IC50 [23]: > 69.5 µM (inactive)
AC50 [24]: 37.1 µM (active)

CCc1c(C)c(C#N)c2nc3ccccc3n2c1Cl
EC50 [25]: 9.98 µM (not active)
EC50 (BJ): 0.443 µM (inconclusive)

O=S(=O)(c1ccc(-c2ccccc2)cc1)N1C[C@@H]2N[C@H](C1)[C@@H]2c1ccc(-c2ccccc2)cc1
AC50 [16]: 2.86 µM (active)
AC50 [26]: 16 µM (active)

O=C(/C=C/c1ccc(N2CCCCC2)c([N+](=O)[O-])c1)c1ccc(O)cc1
AC50 [27]: 28.1 µM (active)

O=C(CSc1ncccc1-c1nc2ccccc2[nH]1)N1CCc2ccccc21
EC50 [28]: 15.1 µM (active)
EC50 [29]: 4.81 µM (active)
EC50 (H4): 21.1 µM (inconclusive)
AC50 [24]: 59.9 µM (active)

N=C(NOC(=O)c1ccccc1Cl)c1ccccc1
IC50 [3]: > 67.6 µM (inactive)
EC50 (cells): > 67.6 µM (inactive)

O=C1NC(=O)c2cc(NC(=O)C3COc4ccccc4O3)ccc21 (configuration not stated)
EC50 [25]: 6.75 µM (not active)

COc1cccc(C2(CSc3nnc(-c4cc(OC)c(OC)c(OC)c4)o3)OCCO2)c1
IC50 (Ephrin type-A receptor 4): > 100 µM (not active)

NC(=NOC(=O)c1ccccc1Cl)c1ccccc1
EC50 [4]: > 67.6 µM (inactive)
EC50 [5]: > 67.6 µM (inactive)

COCc1cn([C@@H]2C[C@@H]3O[C@@H](CO)CC[C@@H]3O[C@@H]2CCc2ccc(-c3ccc(OC)cc3)cc2)nn1
AC50 [14]: 0.231 µM (active)
AC50 [15]: 43 µM (active)
AC50 [16]: 1.12 µM (active)
AC50 [17]: 0.362 µM (active)
AC50 [18]: 0.451 µM (active)

C[C@H](CO)N1C[C@H](C)[C@@H](CN(C)Cc2cccnc2)Oc2cc(C#CC3CCCCC3)ccc2S1(=O)=O
AC50 [27]: 6.45 µM (active)

COc1ccccc1-n1cc(-c2ccc(Cl)cc2)nc1O
EC50 [1]: > 112 µM (not active)
EC50 [2]: 1.89 µM (active)
EC50 [30]: < 0.3 µM (active)

C=CCC[C@H](Cc1ccc(F)cc1)C(=O)OC[C@H](Cc1c[nH]c2ccccc12)NC(=O)[C@@H](CC=C)CC(=O)N[C@H](CO)Cc1ccccc1
AC50 [31]: 4.44 µM (active)
AC50 [32]: 17 µM (active)
AC50 [33]: 15.8 µM (active)
IC50 [23]: > 69.5 µM (inactive)
IC50 [9]: > 69.5 µM (inactive)
IC50 [10]: 58.9 µM (inactive)
IC50 [34]: > 69.5 µM (inactive)
